Source: paper PMC10788925 (Journal of Medicinal Chemistry, 2023)
Like-named read-outs stand apart in the source and are kept apart here.

Experiments:
in vitro [1] = details: human
HEV-3 replicon p6-Gluc = test: microbe, parasite or virus in culture; assay type: cell-based, Hepatitis E virus; details: for EC50 / EC90: Hepatitis E virus
in vitro [2] = test: in vitro
in vitro [3] = details: human; remark: listed apart in the source
CHIKV LR2006-OPY1 = test: microbe, parasite or virus in culture; assay type: cell-based; details: Chikungunya virus
SARS-CoV-2 = test: microbe, parasite or virus in culture; assay type: cell-based
Vero E6 cells = details: African green monkey (Chlorocebus sp.)
RVFV strain MP-12 = test: microbe, parasite or virus in culture; assay type: cell-based; details: Rift Valley fever virus
Huh-7 cells = details: human
[4] = African green monkey (Chlorocebus sp.)
[5] = Severe acute respiratory syndrome coronavirus 2, Vero C1008, 24 h
[6] = Severe acute respiratory syndrome coronavirus 2, Vero C1008, 48 h

| SMILES | EC50 (HEV-3 replicon p6-Gluc; HepG2, 24 h) | EC90 (HEV-3 replicon p6-Gluc; HepG2, 24 h) | EC50 (HEV-3 replicon p6-Gluc; HepG2, 48 h) | EC90 (HEV-3 replicon p6-Gluc; HepG2, 48 h) | CC50 (in vitro [2]; [4]) | CC50 (in vitro [2]; chlorocebus sabaeus, CC50) | CC50 at 24 h (in vitro [1]) | CC50 at 48 h (in vitro [1]) | CC50 (in vitro [3]) | EC50 (CHIKV LR2006-OPY1; Huh-7, 24 h) | EC90 (CHIKV LR2006-OPY1; Huh-7, 24 h) | EC50 (CHIKV LR2006-OPY1; Huh-7, 48 h) | EC90 (CHIKV LR2006-OPY1; Huh-7, 48 h) | EC50 (SARS-CoV-2; [5]) | EC90 (SARS-CoV-2; [5]) | EC50 (SARS-CoV-2; [6]) | EC90 (SARS-CoV-2; [6]) | EC50 (RVFV strain MP-12; Vero C1008, 24 h) | EC90 (RVFV strain MP-12; Vero C1008, 24 h) | EC50 (RVFV strain MP-12; Vero C1008, 48 h) | other results |
| --- | --- | --- | --- | --- | --- | --- | --- | --- | --- | --- | --- | --- | --- | --- | --- | --- | --- | --- | --- | --- | --- |
| COC(=O)[C@H]1[C@@H](O)[C@@]2(O)c3c(F)cc(F)cc3O[C@@]2(c2ccc(OC)cc2)[C@@H]1c1ccccc1 (racemic) [9c, (±)-Methyl (1R,2R,3S,3aR,8bS)-6,8-difluoro-1,8b-dihydroxy-3a-(4-methoxyphenyl)-3-phenyl-2,3,3a,8b-tetrahydro-1H-cyclopenta[b]benzofuran-2-carboxylate] | > 1000 nM | > 1000 nM | > 1000 nM | > 1000 nM | – | – | – | – | – | – | – | – | – | – | – | – | – | – | – | – | CC50 (in vitro [1]): > 1000 nM; EC50 (HEV-3 replicon p6-Gluc; HepG2, 24 h, read-out: HEV, EC50 (24 h, nM)): > 1000 nM; EC90 (HEV-3 replicon p6-Gluc; HepG2, 24 h, read-out: HEV, EC90 (24 h, nM)): > 1000 nM; EC50 (HEV-3 replicon p6-Gluc; HepG2, 48 h, read-out: HEV, EC50 (48 h, nM)): > 1000 nM; EC90 (HEV-3 replicon p6-Gluc; HepG2, 48 h, read-out: HEV, EC90 (48 h, nM)2): > 1000 nM; CC50 (HepG2 cells; read-out: HEP2G, CC50 (24 h), 24 h): > 1000 nM; CC50 (HepG2 cells; read-out: HEP2G, CC50 (48 h), 48 h): > 1000 nM |
| COC(=O)[C@H]1[C@@H](O)[C@@]2(O)c3c(Cl)cc(Cl)cc3O[C@@]2(c2ccc(OC)cc2)[C@@H]1c1ccccc1 (racemic) [9da, (±)-Methyl (1R,2R,3S,3aR,8bS)-6,8-dichloro-1,8b-dihydroxy-3a-(4-methoxyphenyl)-3-phenyl-2,3,3a,8b-tetrahydro-1H-cyclopenta[b]benzofuran-2-carboxylate] | 25.4 nM | 642 nM | 17.5 nM | 725 nM | > 1000 nM | > 1000 nM | 798 nM | 149 nM | > 1000 nM | 18.1 nM | 83.4 nM | 22.4 nM | 92.3 nM | 111 nM | 387 nM | 176 nM | 558 nM | 102 nM | 227 nM | 143 nM | CC50 (Vero E6 cells): > 1000 nM; EC90 (RVFV strain MP-12; Vero C1008, 48 h): 217 nM; CC50 (Huh-7 cells): > 1000 nM |
| COC(=O)[C@H]1[C@@H](O)[C@@]2(O)c3c(OC)cc(Br)cc3O[C@@]2(c2ccc(OC)cc2)[C@@H]1c1ccccc1 (racemic) [9m, (±)-Methyl (1R,2R,3S,3aR,8bS)-6-bromo-1,8b-dihydroxy-8-methoxy-3a-(4-methoxyphenyl)-3-phenyl-2,3,3a,8b-tetrahydro-1H-cyclopenta[b]benzofuran-2-carboxylate] | 3.1 nM | 40.7 nM | 1.4 nM | 30.6 nM | > 1000 nM | > 1000 nM | 421 nM | 13.8 nM | > 1000 nM | 2.1 nM | 12.3 nM | 2.9 nM | 9.8 nM | 33.9 nM | 40.4 nM | 47.8 nM | 80 nM | 26.6 nM | 39.4 nM | 43.3 nM | antiviral response at higher cell density (HEV-3 replicon p6-Gluc): decreased; CC50 (Vero E6 cells): > 1000 nM; EC90 (RVFV strain MP-12; Vero C1008, 48 h): 53.2 nM; CC50 (Huh-7 cells): > 1000 nM; cell viability at higher cell density (HepG2 cells): improved |
| CONC(=O)[C@H]1[C@@H](O)[C@@]2(O)c3c(Cl)cc(Cl)cc3O[C@@]2(c2ccc(OC)cc2)[C@@H]1c1ccccc1 (racemic) [14da, (±)-(1R,2R,3S,3aR,8bS)-6,8-Dichloro-1,8b-dihydroxy-N-methoxy-3a-(4-methoxyphenyl)-3-phenyl-2,3,3a,8b-tetrahydro-1H-cyclopenta[b]benzofuran-2-carboxamide] | 8.6 nM | 172 nM | 9.8 nM | 134 nM | – | – | 511 nM | 31.8 nM | – | – | – | – | – | – | – | – | – | – | – | – | – |
| CONC(=O)[C@H]1[C@@H](O)[C@@]2(O)c3c(Cl)cc(Br)cc3O[C@@]2(c2ccc(OC)cc2)[C@@H]1c1ccccc1 (racemic) [14f, (±)-(1R,2R,3S,3aR,8bS)-6-Bromo-8-chloro-1,8b-dihydroxy-N-methoxy-3a-(4-methoxyphenyl)-3-phenyl-2,3,3a,8b-tetrahydro-1H-cyclopenta[b]benzofuran-2-carboxamide] | 4.6 nM | 53.4 nM | 2.6 nM | 30.2 nM | > 1000 nM | > 1000 nM | 407 nM | 15.6 nM | > 1000 nM | 3.1 nM | 19 nM | 3.4 nM | 20.2 nM | 51.4 nM | 920 nM | 190 nM | 340 nM | 42.1 nM | 92.5 nM | 106 nM | EC90 (RVFV strain MP-12; Vero C1008, 48 h): 113 nM; CC50 (Huh-7 cells): > 1000 nM |
| CONC(=O)[C@H]1[C@@H](O)[C@@]2(O)c3c(F)cc(OC)cc3O[C@@]2(c2ccc(OC)cc2)[C@@H]1c1ccccc1 (racemic) [14hb, (±)-(1R,2R,3S,3aR,8bS)-8-Fluoro-1,8b-dihydroxy-N,6-dimethoxy-3a-(4-methoxyphenyl)-3-phenyl-2,3,3a,8b-tetrahydro-1H-cyclopenta[b]benzofuran-2-carboxamide] | 17.2 nM | 91.2 nM | 10.9 nM | 69.8 nM | – | – | 491 nM | 27.5 nM | – | – | – | – | – | – | – | – | – | – | – | – | – |
| CONC(=O)[C@H]1[C@@H](O)[C@@]2(O)c3c(OC)cc(Br)cc3O[C@@]2(c2ccc(OC)cc2)[C@@H]1c1ccccc1 (racemic) [14m, (±)-(1R,2R,3S,3aR,8bS)-6-Bromo-1,8b-dihydroxy-N,8-dimethoxy-3a-(4-methoxyphenyl)-3-phenyl-2,3,3a,8b-tetrahydro-1H-cyclopenta[b]benzofuran-2-carboxamide] | 1 nM | 328 nM | 0.2 nM | 1.6 nM | – | – | 748 nM | 1 nM | – | – | – | – | – | – | – | – | – | – | – | – | – |
| COC(=O)[C@H]1[C@@H](O)[C@@]2(O)c3c(OC)cc(OC)cc3O[C@@]2(c2ccc(OC)cc2)[C@@H]1c1ccccc1 (racemic) [(±)-methyl rocaglate (11bc), (±)-Methyl (1R,2R,3S,3aR,8bS)-1,8b-dihydroxy-6,8-dimethoxy-3a-(4-methoxyphenyl)-3-phenyl-2,3,3a,8b-tetrahydro-1H-cyclopenta[b]benzofuran-2-carboxylate, reference compound] | 28.4 nM | 631 nM | 29.9 nM | 188 nM | – | – | 690 nM | 65.3 nM | – | – | – | – | – | – | – | – | – | – | – | – | – |
| COc1ccc([C@@]23Oc4cc(OC)cc(OC)c4[C@]2(O)[C@H](O)[C@H](C(=O)N(C)C)[C@H]3c2ccccc2)cc1 (racemic) [(±)-rocaglamide (rac-1b), (±)-(1R,2R,3S,3aR,8bS)-1,8b-Dihydroxy-6,8-dimethoxy-3a-(4-methoxyphenyl)-N,N-dimethyl-3-phenyl-2,3,3a,8b-tetrahydro-1H-cyclopenta[b]benzofuran-2-carboxamide, reference compound] | 27.8 nM | 213 nM | 21 nM | 201 nM | – | – | 550 nM | 44.5 nM | – | – | – | – | – | – | – | – | – | – | – | – | – |
| COC(=O)[C@H]1[C@@H](O)[C@@]2(O)c3c(OC)cc(O[C@@H]4O[C@@H]([C@H](O)CO)CO[C@H]4OC)cc3O[C@@]2(c2ccc(OC)cc2)[C@@H]1c1ccccc1 [(−)-silvestrol (2a), silvestrol, reference compound] | 4.2 nM | 40.5 nM | 2.2 nM | 28.1 nM | – | – | 180 nM | 13.4 nM | – | – | – | – | – | – | – | – | – | – | – | – | – |
